Measurements as given in patent publication US20190315806A1, “POLYMYXIN DERIVATIVE, PREPARATION METHOD AND APPLICATION THEREOF” (priority 2016, published 2019).
Converted amounts (≈) assume the structure as drawn. Where a SMILES comes first, the peptide text is derived from it. Bridges are numbered along the chain shown (N, C = ends). [ ]: non-standard residue; d: D form. The star is where a group is joined. Heptanoyl(6-Me) = CC(C)CCCCC(=O)*; Nonanoyl = CCCCCCCCC(=O)*; X2 = CC[C@H](C)CCCCC(=O)*; dDab = NCC[C@@H](N)C(=O)O; Heptanoyl = CCCCCCC(=O)*; Octanoyl = CCCCCCCC(=O)*; Dab = NCC[C@H](N)C(=O)O; Nva = CCC[C@H](N)C(=O)O

Columns and labels:
Format in all cases: cell-based
[1] = tested on: Escherichia coli ATCC 25922; details: ATCC 25922
In short: (§1)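 Twofold agar-dilution MIC (CLSI), 0.03–128 μg/mL final; 10^4 CFU/dot spotted; 35° C., 18–24 h; no-growth endpoint.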

[2] = tested on: Acinetobacter baumannii ATCC 19606; details: ATCC 19606
In short: as §1

[3] = tested on: Pseudomonas aeruginosa ATCC 27853; details: ATCC 27853
In short: as §1

[4] = tested on: Staphylococcus epidermidis ATCC 12228; details: ATCC 12228
In short: as §1

[5] = tested on: Klebsiella pneumoniae ATCC BAA-2146 (NDM-1); experiment: Antibacterial activity, MIC by dish double dilution method
In short: as §1

[6] = Nephrotoxicity test, renal cytotoxicity by MTT method; details: African green monkey
Protocol: African green monkey kidney cells (Vero cells) were cultured in MEM medium (Hyclone), 10% fetal calf serum (Invitrogen) was added before use, cultured at 37° C. under 5% CO2.
Experiment was carried out using MTT method. After digestion, cells in logarithmic growth phase were counted, then the cells were inoculated in a 96-well culture plate. After incubation for 24 h to be adherent, cells were treated with a concentration gradient of a compound of the invention (e.g., a compound prepared in the Embodiments) and the controls. After 72 h, the culture solution was removed, 100 uL of MTT reagent at a concentration of 0.5 mg/ml was added, the medium was removed after incubating for 3 hours in a 37° C. incubator. Add 150 μL DMSO solvent to each well, mix for 3 min, after which the absorbance at 570 nm (A) was measured with a microplate reader.
Cell viability %=(Adosed cell−Abackground)/(Acontrol cell−Abackground)×100%. The average value of 3 parallel wells was taken for each detection point, and the inhibition curve was drawn to calculate the IC50 value.
The African green monkey kidney cells (Vero cells) used in the experiment were from the Cell Resource Center of the Institute of Basic Medicine, Chinese Academy of Medical Sciences.

Row | SMILES | MIC E. coli ATCC 25922 [1] | MIC A. baumannii ATCC 19606 [2] | MIC P. aeruginosa ATCC 27853 [3] | MIC S. epidermidis ATCC 12228 [4] | MIC K. pneumoniae ATCC BAA-2146 (NDM-1) ([5]; ATCC BAA-2146) | IC50 at 72 h [6] | MIC K. pneumoniae ATCC BAA-2146 (NDM-1) ([5]; agar dilution, 10^4 CFU/dot, 18 to 24 hours at 35° C.)
1 | CCCCCCC(=O)N[C@@H](CCN)C(=O)N[C@H](C(=O)N[C@@H](CCN)C(=O)N[C@H]1CCNC(=O)[C@H]([C@@H](C)O)NC(=O)[C@H](CCN)NC(=O)[C@H](CCN)NC(=O)[C@H](CC(C)C)NC(=O)[C@@H](Cc2ccccc2)NC(=O)[C@H](CCN)NC1=O)[C@@H](C)O [Compound 45, heptanoyl-Dab-Thr-Dab-ring(4-10)[Dab-Dab-D-Phe-Leu-Dab-Dab-Thr]] (Heptanoyl-[Dab]T[Dab][Dab][Dab][dF]L[Dab][Dab]T; lactam 4-C) | 0.5 µg/mL (≈ 0.425 µM) | 0.5 µg/mL (≈ 0.425 µM) | 1 µg/mL (≈ 0.851 µM) | 128 µg/mL (≈ 109 µM) | 0.5 µg/mL (≈ 0.425 µM) | 160 ± 13.6 µg/mL (≈ 136 µM) | –
2 | CCC[C@@H]1NC(=O)[C@@H](CC(C)C)NC(=O)[C@H](CCN)NC(=O)[C@@H](NC(=O)[C@H](CCN)NC(=O)[C@@H](NC(=O)[C@H](CCN)NC(=O)CCCC[C@@H](C)CC)[C@@H](C)O)CCNC(=O)[C@H]([C@@H](C)O)NC(=O)[C@H](CCN)NC(=O)[C@H](CCN)NC1=O [Compound 73, (S)-6-methyloctanoyl-Dab-Thr-Dab-ring(4-10)[Dab-Dab-D-Leu-Nva-Dab-Dab-Thr]] (X2-[Dab]T[Dab][Dab][Dab][dL][Nva][Dab][Dab]T; lactam 4-C) | 1 µg/mL (≈ 0.865 µM) | 1 µg/mL (≈ 0.865 µM) | 1 µg/mL (≈ 0.865 µM) | 128 µg/mL (≈ 111 µM) | 1 µg/mL (≈ 0.865 µM) | 108 ± 9.16 µg/mL (≈ 93.9 µM) | –
3 | CC(C)CCCCC(=O)N[C@@H](CCN)C(=O)N[C@H](C(=O)N[C@H](CO)C(=O)N[C@H]1CCNC(=O)[C@H]([C@@H](C)O)NC(=O)[C@H](CCN)NC(=O)[C@H](CCN)NC(=O)[C@H]([C@@H](C)O)NC(=O)[C@@H](Cc2ccccc2)NC(=O)[C@H](CCN)NC1=O)[C@@H](C)O [Compound 116, 6-methylheptanoyl-Dab-Thr-D-Ser-ring(4-10)[Dab-Dab-D-Phe-Thr-Dab-Dab-Thr]] ({Heptanoyl(6-Me)}-[Dab]T[dS][Dab][Dab][dF]T[Dab][Dab]T; lactam 4-C) | 0.25 µg/mL (≈ 0.215 µM) | 0.25 µg/mL (≈ 0.215 µM) | 2 µg/mL (≈ 1.72 µM) | >128 µg/mL | 1 µg/mL (≈ 0.859 µM) | > 500 µg/mL | –
4 | CCCCCCCC(=O)N[C@@H](CCN)C(=O)N[C@H](C(=O)N[C@@H](CCN)C(=O)N[C@H]1CCNC(=O)[C@H]([C@@H](C)O)NC(=O)[C@H](CCN)NC(=O)[C@H](CCN)NC(=O)[C@H](CC(C)C)NC(=O)[C@@H](Cc2ccccc2)NC(=O)[C@H](CCN)NC1=O)[C@@H](C)O [Compound 44, octanoyl-Dab-Thr-Dab-ring(4-10)[Dab-Dab-D-Phe-Leu-Dab-Dab-Thr]] (Octanoyl-[Dab]T[Dab][Dab][Dab][dF]L[Dab][Dab]T; lactam 4-C) | 0.5 µg/mL (≈ 0.42 µM) | 0.5 µg/mL (≈ 0.42 µM) | 1 µg/mL (≈ 0.841 µM) | 32 µg/mL (≈ 26.9 µM) | 1 µg/mL (≈ 0.841 µM) | 86.4 ± 8.31 µg/mL (≈ 72.6 µM) | –
5 | CCCCCCC(=O)N[C@@H](CCN)C(=O)N[C@H](C(=O)N[C@@H](CCN)C(=O)N[C@H]1CCNC(=O)[C@H]([C@@H](C)O)NC(=O)[C@H](CCN)NC(=O)[C@H](CCN)NC(=O)[C@H](CC(C)C)NC(=O)[C@@H](CC(C)C)NC(=O)[C@H](CCN)NC1=O)[C@@H](C)O [Compound 82, heptanoyl-Dab-Thr-Dab-ring(4-10)[Dab-Dab-D-Leu-Leu-Dab-Dab-Thr]] (Heptanoyl-[Dab]T[Dab][Dab][Dab][dL]L[Dab][Dab]T; lactam 4-C) | 1 µg/mL (≈ 0.876 µM) | 2 µg/mL (≈ 1.75 µM) | 1 µg/mL (≈ 0.876 µM) | >128 µg/mL | 0.5 µg/mL (≈ 0.438 µM) | 216 ± 16.1 µg/mL (≈ 189 µM) | –
6 | CC[C@H](C)CCCCC(=O)N[C@@H](CCN)C(=O)N[C@H](C(=O)N[C@H](CCN)C(=O)N[C@H]1CCNC(=O)[C@H]([C@@H](C)O)NC(=O)[C@H](CCN)NC(=O)[C@H](CCN)NC(=O)[C@H]([C@@H](C)O)NC(=O)[C@@H](Cc2ccccc2)NC(=O)[C@H](CCN)NC1=O)[C@@H](C)O [Compound 143, (S)-6-methyloctanoyl-Dab-Thr-D-Dab-ring(4-10)[Dab-Dab-D-Phe-Thr-Dab-Dab-Thr]] (X2-[Dab]T[dDab][Dab][Dab][dF]T[Dab][Dab]T; lactam 4-C) | 0.5 µg/mL (≈ 0.42 µM) | 1 µg/mL (≈ 0.839 µM) | 1 µg/mL (≈ 0.839 µM) | >128 µg/mL | 1 µg/mL (≈ 0.839 µM) | 142 ± 15.2 µg/mL (≈ 119 µM) | –
7 | CCCCCCCCC(=O)N[C@@H](CCN)C(=O)N[C@H](C(=O)N[C@@H](CCN)C(=O)N[C@H]1CCNC(=O)[C@H]([C@@H](C)O)NC(=O)[C@H](CCN)NC(=O)[C@H](CCN)NC(=O)[C@H](CC(C)C)NC(=O)[C@@H](Cc2ccccc2)NC(=O)[C@H](CCN)NC1=O)[C@@H](C)O [Compound 46, nonanoyl-Dab-Thr-Dab-ring(4-10)[Dab-Dab-D-Phe-Leu-Dab-Dab-Thr]] (Nonanoyl-[Dab]T[Dab][Dab][Dab][dF]L[Dab][Dab]T; lactam 4-C) | 1 µg/mL (≈ 0.831 µM) | 1 µg/mL (≈ 0.831 µM) | 2 µg/mL (≈ 1.66 µM) | 32 µg/mL (≈ 26.6 µM) | 2 µg/mL (≈ 1.66 µM) | 33.1 ± 2.64 µg/mL (≈ 27.5 µM) | –
8 | CC[C@H](C)CCCCC(=O)N[C@@H](CCN)C(=O)N[C@H](C(=O)N[C@@H](CCN)C(=O)N[C@H]1CCNC(=O)[C@H]([C@@H](C)O)NC(=O)[C@H](CCN)NC(=O)[C@H](CCN)NC(=O)[C@H]([C@@H](C)CC)NC(=O)[C@@H](Cc2ccccc2)NC(=O)[C@H](CCN)NC1=O)[C@@H](C)O [Compound 47, (S)-6-methyloctanoyl-Dab-Thr-Dab-ring(4-10)[Dab-Dab-D-Phe-Ile-Dab-Dab-Thr]] (X2-[Dab]T[Dab][Dab][Dab][dF]I[Dab][Dab]T; lactam 4-C) | 1 µg/mL (≈ 0.831 µM) | 1 µg/mL (≈ 0.831 µM) | 2 µg/mL (≈ 1.66 µM) | 128 µg/mL (≈ 106 µM) | 1 µg/mL (≈ 0.831 µM) | 74.7 ± 6.13 µg/mL (≈ 62.1 µM) | –
9 | CC(C)CCCCC(=O)N[C@@H](CCN)C(=O)N[C@H](C(=O)N[C@@H](CCN)C(=O)N[C@H]1CCNC(=O)[C@H]([C@@H](C)O)NC(=O)[C@H](CCN)NC(=O)[C@H](CCN)NC(=O)[C@H](CC(C)C)NC(=O)[C@@H](Cc2ccccc2)NC(=O)[C@H](CCN)NC1=O)[C@@H](C)O [Compound 43, 6-methylheptanoyl-Dab-Thr-Dab-ring(4-10)[Dab-Dab-D-Phe-Leu-Dab-Dab-Thr]] ({Heptanoyl(6-Me)}-[Dab]T[Dab][Dab][Dab][dF]L[Dab][Dab]T; lactam 4-C) | 0.5 µg/mL (≈ 0.42 µM) | 0.5 µg/mL (≈ 0.42 µM) | 2 µg/mL (≈ 1.68 µM) | 64 µg/mL (≈ 53.8 µM) | – | 159 ± 14.1 µg/mL (≈ 134 µM) | 1 µg/mL (≈ 0.841 µM)
10 | CC[C@H](C)CCCCC(=O)N[C@@H](CCN)C(=O)N[C@H](C(=O)N[C@@H](CCN)C(=O)N[C@H]1CCNC(=O)[C@H](CC(C)C)NC(=O)[C@H](CCN)NC(=O)[C@H](CCN)NC(=O)[C@H](CC(C)C)NC(=O)[C@@H](Cc2ccccc2)NC(=O)[C@H](CCN)NC1=O)[C@@H](C)O [Compound 127, (S)-6-methyloctanoyl-Dab-Thr-Dab-ring(4-10)[Dab-Dab-D-Phe-Lue-Dab-Dab-Lue]] (X2-[Dab]T[Dab][Dab][Dab][dF]L[Dab][Dab]L; lactam 4-C) | 4 µg/mL (≈ 3.29 µM) | 2 µg/mL (≈ 1.65 µM) | 4 µg/mL (≈ 3.29 µM) | 8 µg/mL (≈ 6.58 µM) | 4 µg/mL (≈ 3.29 µM) | 17.2 ± 2.16 µg/mL (≈ 14.1 µM) | –
11 | CC[C@H](C)CCCCC(=O)N[C@@H](CCN)C(=O)N[C@H](C(=O)N[C@@H](CCN)C(=O)N[C@H]1CCNC(=O)[C@H]([C@@H](C)O)NC(=O)[C@H](CCN)NC(=O)[C@H](CCN)NC(=O)[C@H](C(C)C)NC(=O)[C@@H](CC(C)C)NC(=O)[C@H](CCN)NC1=O)[C@@H](C)O [Compound 72, (S)-6-methyloctanoyl-Dab-Thr-Dab-ring(4-10)[Dab-Dab-D-Leu-Val-Dab-Dab-Thr]] (X2-[Dab]T[Dab][Dab][Dab][dL]V[Dab][Dab]T; lactam 4-C) | 0.5 µg/mL (≈ 0.433 µM) | 0.5 µg/mL (≈ 0.433 µM) | 2 µg/mL (≈ 1.73 µM) | 128 µg/mL (≈ 111 µM) | 0.5 µg/mL (≈ 0.433 µM) | 131 ± 8.69 µg/mL (≈ 113 µM) | –
